# Measured values from patent publication US20220315895A1, “METHODS OF MAKING OLIGOPOTENT AND UNIPOTENT PRECURSORS” (Transfusion Health, LLC, priority 2019, published 2022).
# Assays:
# [1] = tested on: CD34+ cells from cord blood; assay: HSC Expansion Culture, 14 to 64 days (Example 42); format: cell-based, human
# Description: Cryopreserved CD34+ cells from cord blood were purchased from STEMCELL Technologies. Primary human CD34+ cells were isolated by the supplier from cord blood samples using positive immunomagnetic separation techniques. Cells were thawed, gradually brought to room temperature, then washed. Cells were primed for expansion with overnight culture in StemSpan SFEM I with 100 ng/mL each of FLT3L, TPO, SCF, and IL-6. Eighteen-to-twenty-four hours later (day 1), cells were counted and immunophenotyped (flow cytometry on an Invitrogen Attune N×T cytometer). Cells were then placed into “HSC Expansion Culture,” described here, or placed directly into Differentiation Culture with STEMCELL's Myeloid StemSpan Myeloid Expansion Supplement (Granulocyte). Media for expanding CD34+ cell numbers was prepared in StemSpan SFEM II (STEMCELL) and added to duplicate 25 cm^2 flasks (4 ml total volume per flask). Expansion Culture conditions also included an antibiotic solution containing penicillin, streptomycin, and amphotericin B to avoid contamination. Additional media components and concentrations used for the conditions tested were as described above in Table 9. All incubations for Expansion Culture took place at 3% oxygen (controlled by nitrogen) and 5% CO2. During Expansion Culture, samples were taken for cell counting and phenotyping. […]
# [2] = tested on: expanded cord blood CD34+ cells, lymphoid progenitors; assay: Lymphoid Progenitor Differentiation Culture after Expansion Culture (Example 41); format: cell-based, human; conditions: for Fold Enhancement (vs. unexpanded) of CD10+ lineage output: 14 days Lymphoid Differentiation Culture
# Source text: Lymphoid Progenitor Differentiation Cultures (L Diff Cultures) were initiated prior to culture in +Formula I (Day 1 L Diff Culture), following 14 days of culture in +Formula I (14-day +Formula I-expanded L Diff Culture), following 14 days of culture in control conditions (14-day DMSO-expanded L Diff Culture) or following 21 days of culture in +Formula I (21-day +Formula I-expanded L Diff Culture).
# 12-well non-TC-treated plates were coated with StemSpan Lymphoid Differentiation Coating Material (STEMCELL Technologies) by incubation for two hours at room temperature. Immediately prior to initiation of L Diff Culture, wells were washed with PBS.
# Purified CD34+ cells were plated at 20,000 cells per well, in Lymphoid Progenitor Expansion Medium (“LPEM”), comprising StemSpan SFEM II medium (STEMCELL Technologies) with StemSpan Lymphoid Progenitor Expansion Supplement (STEMCELL Technologies). Cells were plated in duplicate, in 500 μl/well, then placed in a humidified incubator at atmospheric oxygen and 5% CO2. Exact cell numbers dispensed per well were quantified with flow cytometry for later calculations.
# On days three or five, an additional 500 μl/well of LPEM was added, then on days seven and eleven, half of the media was removed and replaced with fresh LPEM.
# At seven and fourteen days, cells were analyzed via flow cytometry to quantify lymphoid lineage phenotypes of CD7+/CD5−, CD5+/CD7− and CD7+/CD5+, as well as presence of maturing B cells (CD19+), T cells (CD3+) or NK cells (CD56+).
# “Per-Assayed-CD34+ Cell Output” describes the output of differentiated cells per CD34+ cell placed into Differentiation Culture, and is calculated by dividing the Corrected Count of lineage-positive cells by the number of CD34+ cells placed into quantified at Differentiation Culture initiation following 1, 14, 28, 42 or 64 days in Expansion Culture.
# “Scaled Output” (or Scaled Output per CD34+ cell) describes the number of differentiated cells of a given lineage that may be produced from a single CD34+ cell following both Expansion Cell Culture (if expanded) followed by Differentiation Culture. This quantity is calculated by multiplying Per-Assayed-CD34+ Cell Output by the Fold Expansion of CD34+ cells from day 1 to the day of Differentiation Culture initiation (day 14, 28, 42 or 64). This quantity is synonymous with “per-expanded-dl-CD34+ cell output” used in Example 38 above.
# “Fold Enhancement (vs. unexpanded)” was calculated to fully capture the benefit of Expansion Culture in +Formula I Conditions prior to Differentiation Culture. This quantity was calculated by dividing the Scaled Output output of a given cell population by the Per-Assayed-CD34+ Cell Output of that population from unexpanded cells placed into differentiation culture, as in the equation below. Each fold increase was calculated relative to the same number of days in differentiation culture, e.g. the fold increase of cells differentiated for six days was calculated by dividing the scaled output of expanded cells differentiated for six days by the output of unexpanded cells differentiated for six days. In the case of cells differentiated for 14 days, an exact match in unexpanded cells was not available, so output at differentiation day 13 was used as a denominator.
# [3] = 14 days in +Formula I Expansion Culture
# [4] = 21 days in +Formula I Expansion Culture
compound,measurement,setting,value
CC(C)(C)C(=O)Nc1ccc2c(c1)C(O)c1ccccc1-2 (stereo not shown) [Compound 1.010],fold expansion in CD34+ cell numbers,"[1]; +Formula I conditions (Compound 1.010 8 μM), day 14",about 270 fold
same,fold expansion in CD34+ cell numbers,"[1]; +Formula I conditions, day 64","about 86,000 fold"
same,Fold Enhancement (vs. unexpanded) of CD7+/CD5+ lineage output,[2]; [3],5.8 fold
same,Fold Enhancement (vs. unexpanded) of CD7+/CD5− lineage output,[2]; [3],6.3 fold
same,Fold Enhancement (vs. unexpanded) of CD7−/CD5+ lineage output,[2]; [3],11 fold
same,Fold Enhancement (vs. unexpanded) of CD10+ lineage output,[2]; [3],5 fold
same,Fold Enhancement (vs. unexpanded) of CD7+/CD5+ lineage output,[2]; [4],238 fold
same,Fold Enhancement (vs. unexpanded) of CD7+/CD5− lineage output,[2]; [4],46 fold
same,Fold Enhancement (vs. unexpanded) of CD7−/CD5+ lineage output,[2]; [4],180 fold
same,Fold Enhancement (vs. unexpanded) of CD10+ lineage output,[2]; [4],37 fold
